Measured values taken from patent US8507510B2, “Sulfoximine-substituted pyrimidines as CDK- and/or VEGF inhibitors, their production and use as pharmaceutical agents” (Bayer Intellectual Property GmbH, priority 2003, dated 2013).

Experiments:
Format in all cases: cell-based, human
[1] = system: MCF7; assay: Proliferation assay, MCF7; settings: MCF7 cells, 4 days, crystal violet
Excerpt: (§1) Cultivated human tumor cells (MCF7, […] human breast cancer cells, related to ATCC HTB22; NCI-H460, human non-small-cell lung cancer cells, ATCC HTB-177, HCT 116, human colon cancer cells, ATCC CCL-247; DU 145, hormone-independent human prostate cancer cells, ATCC HTB-81; MaTu-MDR, hormone-independent, multiple pharmaceutical agent-resistant human breast cancer cells, EPO-GmbH, Berlin) were flattened out at a density of about 5000 cells/measuring point, depending on the growth rate of the respective cells, in a 96-well multititer plate in 200 μl of the corresponding growth medium. After 24 hours, the cells of one plate (zero-point plate) were colored with crystal violet (see below), while the medium of the other plates was replaced by fresh culture medium (200 μl), to which the test substances were added in various concentrations (0 μm, as well as in the range of 0.01-30 μm; the final concentration of the solvent dimethyl sulfoxide was 0.5%). The cells were incubated for 4 days in the presence of test substances. The cell proliferation was determined by coloring the cells with crystal violet: the cells were fixed by adding 20 μl/measuring point of an 11% glutaric aldehyde solution for 15 minutes at room temperature. After three washing cycles of the fixed cells with water, the plates were dried at room temperature. The cells were colored by adding 100 μl/measuring point of a 0.1% crystal violet solution (the pH was set at 3 by adding acetic acid). After three washing cycles of the colored cells with water, the plates were dried at room temperature. The dye was dissolved by adding 100 μl/measuring point of a 10% acetic acid solution. The extinction was determined by photometry at a wavelength of 595 nm The change of cell growth, in percent, was calculated by normalization of the measured values to the extinction values of the zero-point plate (=0%) and the extinction of the untreated (0 μm) cells (=100%).

[2] = system: H460; assay: Proliferation assay, H460; settings: H460 cells, 4 days, crystal violet
Excerpt: as §1

[3] = system: DU145; assay: Proliferation assay, DU145; settings: Homo sapiens, DU-145, 96 h, DU145 cells, 4 days, crystal violet
Excerpt: as §1

[4] = system: MaTu-ADR; assay: Proliferation assay, MaTu-ADR; settings: Homo sapiens, 96 h, MaTu-ADR cells, 4 days, crystal violet
Excerpt: as §1

Compound | IC50 [1] | IC50 ([1]; Homo sapiens, MCF7, 96 h) | also measured
CCS(=N)(=O)c1ccc(Nc2ncc(Br)c(N[C@H](C)C(C)(C)O)n2)cc1 (mixture of isomers) [Example 1.54, (RS)—S-[4-({5-bromo-4-[(R)-(2-hydroxy-1,2-dimethylpropyl)amino]pyrimidin-2-yl}amino)phenyl]-S-ethyl sulfoximide] | 110 nM |  | IC50 [2]: 120 nM; IC50 [3]: 190 nM
CCS(=N)(=O)c1ccc(Nc2ncc(Br)c(N[C@H](COC)[C@@H](C)O)n2)cc1 (mixture of isomers) [Example 1.48, (RS)—S-{4-[(5-bromo-4-{[(1R,2R)-2-hydroxy-1-(methoxymethyl)-propyl]amino}pyrimidin-2-yl)amino]phenyl}-S-ethyl sulfoximide] |  | 300 nM | 
C[C@@H](O)[C@@H](C)Nc1nc(Nc2ccc(S(=N)(=O)CCO)cc2)ncc1Br (single isomer, unassigned) [Example 1.19] |  | < 100 nM | 
CCS(=N)(=O)c1ccc(Nc2ncc(Br)c(N[C@H](C)C(C)(C)O)n2)cc1 (single isomer, unassigned) [Example 1.56] |  | 20 nM | IC50 ([2]; Homo sapiens, NCI-H460, 96 h): 100 nM; IC50 [4]: 50 nM
CN=S(C)(=O)c1ccc(Nc2ncc(Br)c(N[C@H](C)[C@@H](C)O)n2)cc1 (mixture of isomers) [Example 1.30, (RS)-S-[4-({5-bromo-4-[(1R,2R)-(2-hydroxy-1-methylpropyl)amino]pyrimidin-2-yl}amino)phenyl]-N,S-dimethyl-sulfoximide] | 170 nM |  | 
CCS(=N)(=O)c1ccc(Nc2ncc(Br)c(N[C@H](C)[C@@H](C)O)n2)cc1 (mixture of isomers) [Example 1.52, (RS)-S-[4-({5-bromo-4-[(1R,2R)-(2-hydroxy-1-methylpropyl)amino]pyrimidin-2-yl}amino)phenyl]-S-ethyl sulfoximide] | < 100 nM |  | 
CCS(=N)(=O)c1ccc(Nc2ncc(Br)c(N[C@H](C)[C@@H](C)O)n2)cc1 (mixture of isomers) [Example 1.51, (RS)—S-[4-({5-bromo-4-[(1R,2R)-(2-hydroxy-1-methylpropyl)amino]pyrimidin-2-yl}amino)phenyl]-S-ethyl sulfoximide] |  | 80 nM | 
CN=S(C)(=O)c1ccc(Nc2ncc(Br)c(N[C@H](C)[C@@H](C)O)n2)cc1 (mixture of isomers) [Example 1.29, (RS)-S-[4-({5-bromo-4-[(1R,2R)-(2-hydroxy-1-methylpropyl)amino]pyrimidin-2-yl}amino)phenyl]-N,S-dimethyl-sulfoximide] | 170 nM |  | 
COc1cc(Nc2ncc(Br)c(N[C@H](C)[C@@H](C)O)n2)ccc1S(C)(=N)=O (mixture of isomers) [Example 1.26, (RS)-S-[4-({5-bromo-4-[(1R,2R)-(2-hydroxy-1-methylpropyl)amino]pyrimidin-2-yl}amino)-2-methoxyphenyl]-S-methyl sulfoximide] | 60 nM |  | 
COc1cc(Nc2ncc(Br)c(N[C@H](C)[C@@H](C)O)n2)ccc1S(C)(=N)=O (single isomer, unassigned) [Example 1.27] |  | 60 nM | IC50 ([2]; Homo sapiens, NCI-H460, 96 h): 20 nM; IC50 [3]: 130 nM
C[C@@H](Nc1nc(Nc2ccc(S(=N)(=O)CCO)cc2)ncc1Br)C(C)(C)O (mixture of isomers) [Example 1.14, (RS)-S-[4-({5-bromo-4-[(R)-(2-hydroxy-1,2-dimethylpropyl)amino]pyrimidin-2-yl}amino)phenyl]-S-(2-hydroxyethyl)-sulfoximide] |  |  | IC50 [3]: 90 nM; IC50 [4]: 110 nM
C[C@@H](O)[C@@H](C)Nc1nc(Nc2ccc(S(=N)(=O)CCO)cc2)ncc1Br (mixture of isomers) [Example 1.18, (RS)-S-[4-({5-bromo-4-[(1R,2R)-(2-hydroxy-1-methyl-propyl)amino]pyrimidin-2-yl}amino)phenyl]-S-(2-hydroxyethyl)sulfoximide] |  | < 100 nM | 
CCS(=N)(=O)c1ccc(Nc2ncc(Br)c(N[C@H](COC)[C@@H](C)O)n2)cc1 (single isomer, unassigned) [Example 1.50] |  | 1200 nM | 
